The test system of this assay is Mycobacterium tuberculosis. In words: Antimicrobial activity against Mycobacterium bovis BCG after 4 days by alamar blue assay. In kind it is functional. The conditions noted are these: variant bovis BCG, 96 h.

SMILES strings stand for the structures. Values after ≈ are worked out from the molar mass of the structure shown.

What is called MIC is the lowest concentration that inhibits growth of the organism. A high value points to a need for much substance. `O=CN(O)C[C@@H](CC1CC1)C(=O)N1CCC[C@H]1c1nc2ccccc2o1` showed an MIC of 1.2 µg/mL (≈ 3.36 µM).

With `O=CN(O)C[C@@H](CC1CC1)C(=O)N1CCC[C@H]1c1nc2ccccc2[nH]1`, the MIC turned out to be 1.2 µg/mL (≈ 3.37 µM).

In turn, `O=CN(O)C[C@@H](Cc1ccccc1)C(=O)N1CCC[C@H]1c1nc2ccccc2[nH]1` showed an MIC of 9 µg/mL (≈ 22.9 µM).

`O=CN(O)C[C@@H](Cc1ccccc1)C(=O)N1CCC[C@H]1c1nc2ccccc2o1`: 9 µg/mL (≈ 22.9 µM) was the least that counted as inhibitory (MIC).

Consider `CCCC[C@H](CC(=O)O)C(=O)N1CCC[C@H]1c1nc2ccccc2o1`, for which the MIC was found to be 9 µg/mL (≈ 26.1 µM).

The compound `CCCCC[C@H](CN(O)C=O)C(=O)N1CCC[C@H]1c1nc2ccccc2o1` showed an MIC of 0.6 µg/mL (≈ 1.61 µM).

The compound `CCCC[C@H](CC(=O)O)C(=O)N1CCC[C@H]1c1nc2ccccc2[nH]1` gave an MIC of 9 µg/mL (≈ 26.2 µM). This MIC lies about 15-fold higher than the previous one.

Regarding `CCCC[C@H](C(=O)NO)C(=O)N1CCC[C@H]1c1nc2ccccc2o1`, inhibition of growth (MIC) required 4.5 µg/mL (≈ 13 µM).

In the case of `CCC[C@H](CN(O)C=O)C(=O)N1CCC[C@H]1c1nc2ccccc2o1`, it took 4.5 µg/mL (≈ 13 µM) to inhibit growth (MIC).

On to `CCCCC[C@H](CN(O)C=O)C(=O)N1CCC[C@H]1c1nc2ccccc2[nH]1`, for which inhibition of growth (MIC) required 1.2 µg/mL (≈ 3.22 µM).

For `CCCC[C@H](CN(O)C=O)C(=O)N1CCC[C@H]1c1nc2ccccc2o1`, the MIC turned out to be 0.6 µg/mL (≈ 1.67 µM). Compared with the last compound, the MIC is about 2-fold lower.

In turn, `CCC[C@H](CN(O)C=O)C(=O)N1CCC[C@H]1c1nc2ccccc2[nH]1` had an MIC of 9 µg/mL (≈ 26.1 µM).

As to `CCCC[C@H](C(=O)NO)C(=O)N1CCC[C@H]1c1nc2ccccc2[nH]1`, the MIC is 4.5 µg/mL (≈ 13.1 µM). This MIC is about 2-fold lower than that of the compound before.

`CCCC[C@H](CN(O)C=O)C(=O)N1CCC[C@H]1c1nc2ccccc2[nH]1` came in with an MIC of 0.6 µg/mL (≈ 1.67 µM).

Source of the values: ChEMBL document CHEMBL1139242, “Peptide deformylase inhibitors of Mycobacterium tuberculosis: synthesis, structural investigations, and biological results” (Bioorg Med Chem Lett, 2008).
